# Test results taken from paper PMC3959874 (European journal of dermatology : EJD, 2013).
# Where two headings read alike, the source gives them in different places.
# Key:
# CYP450, 2C9 = CYP450, 2C9 (Homo sapiens, UniProt P11712); assay: Cytochrome P450 enzyme assay; type: in vitro ADME; settings: 10 μM; 37 °C, 45 min
# CYP450, 3A4 = CYP450, 3A4 (Homo sapiens, UniProt P08684); assay: Cytochrome P450 enzyme assay; type: in vitro ADME; settings: 10 μM; 37 °C, 30 min
# Adenosine A1 = Adenosine A1 (Homo sapiens, UniProt P30542); assay: Radioligand binding assay; settings: 10 μM; 25 °C, 90 min
# Adenosine A2A = Adenosine A2A (Homo sapiens, UniProt P29274); assay: Radioligand binding assay; settings: 10 μM; 25 °C, 90 min
# Adenosine A3 = Adenosine A3 (Homo sapiens, UniProt P0DMS8); assay: Radioligand binding assay; settings: 10 μM; 25 °C, 60 min
# Adrenergic a1B = Adrenergic a1B (Rattus norvegicus, UniProt P15823); assay: Radioligand binding assay; settings: 10 μM; 25 °C, 60 min
# Adrenergic a2A = Adrenergic a2A (Homo sapiens, UniProt P08913); assay: Radioligand binding assay; settings: 10 μM; 25 °C, 60 min
# Adrenergic β1 = Adrenergic β1 (Homo sapiens, UniProt P08588); assay: Radioligand binding assay; settings: 10 μM; 25 °C, 120 min
# Adrenergic β2 = Adrenergic β2 (Homo sapiens, UniProt P07550); assay: Radioligand binding assay; settings: 10 μM; 25 °C, 60 min
# Bradykinin B2 = Bradykinin B2 (Homo sapiens, UniProt P30411); assay: Radioligand binding assay; settings: 10 μM; 25 °C, 60 min
# [1] = system: Calcium Channel L-Type, Benzothiazepine; assay: Radioligand binding assay; design: species or system rat; settings: 10 μM; 4 °C, 180 min
# [2] = system: Calcium Channel L-Type, Dihydropyridine; assay: Radioligand binding assay; design: species or system rat; settings: 10 μM; 25 °C, 90 min
# Cannabinoid CB1 = Cannabinoid CB1 (Homo sapiens, UniProt P21554); assay: Radioligand binding assay; settings: 10 μM; 37 °C, 90 min
# Dopamine D1 = Dopamine D1 (Homo sapiens, UniProt P21728); assay: Radioligand binding assay; settings: 10 μM; 37 °C, 120 min
# Dopamine D4.2 = Dopamine D4.2 (Homo sapiens, UniProt P21917, DEL265-296); assay: Radioligand binding assay; settings: 10 μM; 25 °C, 120 min
# Endothelin ETB = Endothelin ETB (Homo sapiens, UniProt P24530); assay: Radioligand binding assay; settings: 10 μM; 25 °C, 120 min
# [3] = target: Epidermal Growth Factor (EG F) (Homo sapiens, UniProt P00533); assay: Radioligand binding assay; settings: 10 μM; 25 °C, 60 min
# Estrogen ERa = Estrogen ERa (Homo sapiens, UniProt P03372); assay: Radioligand binding assay; settings: 10 μM; 25 °C, 120 min
# Glucocorticoid = Glucocorticoid (Homo sapiens, UniProt P04150); assay: Radioligand binding assay; settings: 10 μM; 25 °C, 120 min
# Glutamate, Kainate = assay: Radioligand binding assay; design: species or system rat; settings: 10 μM; 4 °C, 60 min
# [4] = system: Glutamate, NMDA, Phencyclidine; assay: Radioligand binding assay; design: species or system rat; settings: 10 μM; 25 °C, 45 min
# Imidazoline I2, Central = assay: Radioligand binding assay; design: species or system rat; settings: 10 μM; 25 °C, 30 min
# [5] = target: Leukotriene, Cysteinyl CysLT 1 (Homo sapiens, UniProt Q9Y271); assay: Radioligand binding assay; settings: 10 μM; 25 °C, 30 min
# Muscarinic M1 = Muscarinic M1 (Homo sapiens, UniProt P11229); type: binding; settings: 10 μM; 25 °C, 120 min
# Muscarinic M2 = Muscarinic M2 (Homo sapiens, UniProt P08172); assay: Radioligand binding assay; settings: 10 μM; 25 °C, 120 min
# Neuropeptide Y Y2 = Neuropeptide Y Y2 (Homo sapiens, UniProt P49146); assay: Radioligand binding assay; settings: 10 μM; 37 °C, 120 min
# Nicotinic Acetylcholine = assay: Radioligand binding assay; design: species or system human; settings: 10 μM; 25 °C, 60 min
# [6] = target: Nicotinic Acetylcholine a1, Bungarotoxin (Homo sapiens, UniProt P02708+P07510+Q07001); assay: Radioligand binding assay; settings: 10 μM; 25 °C, 120 min
# Opiate 51 (OP1, DOP) = Opiate 51 (OP1, DOP) (Homo sapiens, UniProt P41143); assay: Radioligand binding assay; settings: 10 μM; 25 °C, 60 min
# Opiate n (OP3, MOP) = Opiate n (OP3, MOP) (Homo sapiens, UniProt P35372); assay: Radioligand binding assay; settings: 10 μM; 25 °C, 60 min
# Phorbol Ester = assay: Radioligand binding assay; design: species or system mouse; settings: 10 μM; 25 °C, 60 min
# [7] = target: Platelet Activating Factor (PA F) (Homo sapiens, UniProt P25105); assay: Radioligand binding assay; settings: 10 μM; 25 °C, 180 min
# Potassium Channel [KATP] = assay: Radioligand binding assay; design: species or system human; settings: 10 μM; 25 °C, 120 min
# Potassium Channel hERG = Potassium Channel hERG (Homo sapiens, UniProt Q12809); assay: Radioligand binding assay; settings: 10 μM; 25 °C, 60 min
# Purinergic P2, = assay: Radioligand binding assay; design: species or system rat; settings: 10 μM; 25 °C, 60 min
# [8] = target: Serotonin (5-Hydroxytryptam ine) 5-HT1A (Homo sapiens, UniProt P08908); assay: Radioligand binding assay; settings: 10 μM; 25 °C, 60 min
# [9] = target: Serotonin (5-Hydroxytryptam ine) 5-HT3 (Homo sapiens, UniProt P46098); assay: Radioligand binding assay; settings: 10 μM; 37 °C, 60 min
# Sigma al = Sigma al (Homo sapiens, UniProt Q99720); assay: Radioligand binding assay; settings: 10 μM; 37 °C, 240 min
# [10] = target: Transporter, Serotonin (5-Hyd roxytryptamine) (SERT) (Homo sapiens, UniProt P31645); type: binding; settings: 10 μM; 25 °C, 60 min
# [11] = type: in vivo, mice; settings: for Body weight change after a single intravenous injection of the MTD: 150 mg/kg TMX-202 or 15 mg/kg IMQ i.v. (figure 4)
# [12] = Serum drug concentration after topical skin application; settings: mice, TMX-202 from TMX-202 gel, IMQ from Aldara
# Chain of Muscarinic M1 (P11229 whole entry): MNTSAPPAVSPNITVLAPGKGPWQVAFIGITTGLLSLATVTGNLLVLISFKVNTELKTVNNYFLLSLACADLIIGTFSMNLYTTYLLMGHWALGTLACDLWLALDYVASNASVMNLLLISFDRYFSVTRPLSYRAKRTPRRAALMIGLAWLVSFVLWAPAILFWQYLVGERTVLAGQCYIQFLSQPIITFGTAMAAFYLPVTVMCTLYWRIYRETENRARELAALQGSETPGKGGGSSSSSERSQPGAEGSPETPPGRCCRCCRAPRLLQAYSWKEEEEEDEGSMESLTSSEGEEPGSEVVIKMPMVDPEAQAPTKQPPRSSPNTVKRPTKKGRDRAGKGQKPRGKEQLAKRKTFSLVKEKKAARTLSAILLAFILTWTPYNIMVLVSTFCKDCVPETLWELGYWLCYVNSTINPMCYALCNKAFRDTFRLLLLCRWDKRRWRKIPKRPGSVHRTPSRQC
# Chain of Adrenergic a1B (P15823 whole entry): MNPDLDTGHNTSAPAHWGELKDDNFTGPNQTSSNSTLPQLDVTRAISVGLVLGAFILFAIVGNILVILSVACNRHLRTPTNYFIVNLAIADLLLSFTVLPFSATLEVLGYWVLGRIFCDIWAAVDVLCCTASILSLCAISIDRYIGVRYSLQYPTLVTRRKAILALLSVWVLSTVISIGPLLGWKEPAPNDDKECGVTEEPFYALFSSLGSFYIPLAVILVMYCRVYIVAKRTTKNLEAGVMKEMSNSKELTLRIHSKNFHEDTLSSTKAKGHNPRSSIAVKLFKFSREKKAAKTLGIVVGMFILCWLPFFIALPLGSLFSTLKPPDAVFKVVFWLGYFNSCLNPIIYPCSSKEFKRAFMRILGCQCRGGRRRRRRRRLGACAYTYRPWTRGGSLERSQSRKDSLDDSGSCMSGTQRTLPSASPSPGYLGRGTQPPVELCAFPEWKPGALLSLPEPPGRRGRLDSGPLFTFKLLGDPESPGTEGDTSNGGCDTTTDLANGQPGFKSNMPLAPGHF
# Chain of Adrenergic a2A (P08913 whole entry): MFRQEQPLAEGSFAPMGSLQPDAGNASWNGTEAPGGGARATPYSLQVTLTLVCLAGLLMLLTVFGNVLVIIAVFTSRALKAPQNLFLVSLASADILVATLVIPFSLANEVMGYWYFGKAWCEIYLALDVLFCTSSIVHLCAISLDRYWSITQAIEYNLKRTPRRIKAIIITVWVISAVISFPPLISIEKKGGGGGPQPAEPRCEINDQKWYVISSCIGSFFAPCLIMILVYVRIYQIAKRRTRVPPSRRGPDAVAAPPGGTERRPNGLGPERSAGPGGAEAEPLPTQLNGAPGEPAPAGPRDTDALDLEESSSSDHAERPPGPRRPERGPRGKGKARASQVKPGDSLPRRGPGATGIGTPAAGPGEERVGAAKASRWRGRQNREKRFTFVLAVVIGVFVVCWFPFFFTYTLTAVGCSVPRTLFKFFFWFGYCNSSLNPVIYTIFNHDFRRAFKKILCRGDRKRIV
# Chain of Adrenergic β1 (P08588 whole entry): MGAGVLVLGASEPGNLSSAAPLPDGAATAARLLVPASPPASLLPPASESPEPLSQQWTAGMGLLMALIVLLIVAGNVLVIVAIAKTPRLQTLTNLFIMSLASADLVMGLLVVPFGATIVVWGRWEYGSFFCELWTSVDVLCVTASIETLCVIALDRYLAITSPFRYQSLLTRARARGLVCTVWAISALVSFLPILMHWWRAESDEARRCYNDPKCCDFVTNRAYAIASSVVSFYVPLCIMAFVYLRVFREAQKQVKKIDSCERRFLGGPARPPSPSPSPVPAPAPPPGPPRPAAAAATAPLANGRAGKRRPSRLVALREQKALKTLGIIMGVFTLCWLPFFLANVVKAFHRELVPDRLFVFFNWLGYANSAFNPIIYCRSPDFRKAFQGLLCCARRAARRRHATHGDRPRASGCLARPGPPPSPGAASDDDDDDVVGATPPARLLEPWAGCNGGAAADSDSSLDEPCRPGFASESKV
# Chain of Adrenergic β2 (P07550 whole entry): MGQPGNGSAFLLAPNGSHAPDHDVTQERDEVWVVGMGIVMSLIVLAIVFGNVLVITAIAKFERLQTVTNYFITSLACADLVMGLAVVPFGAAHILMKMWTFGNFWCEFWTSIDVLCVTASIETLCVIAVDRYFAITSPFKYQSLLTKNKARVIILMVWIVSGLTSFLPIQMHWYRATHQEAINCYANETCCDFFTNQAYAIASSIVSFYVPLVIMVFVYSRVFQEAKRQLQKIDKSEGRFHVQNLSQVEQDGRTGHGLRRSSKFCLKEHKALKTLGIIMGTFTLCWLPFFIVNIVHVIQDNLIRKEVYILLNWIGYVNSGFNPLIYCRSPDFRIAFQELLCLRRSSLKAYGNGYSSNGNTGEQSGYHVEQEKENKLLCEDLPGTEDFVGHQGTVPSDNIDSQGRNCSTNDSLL
# Chain of Serotonin (5-Hydroxytryptam ine) 5-HT1A (P08908 whole entry): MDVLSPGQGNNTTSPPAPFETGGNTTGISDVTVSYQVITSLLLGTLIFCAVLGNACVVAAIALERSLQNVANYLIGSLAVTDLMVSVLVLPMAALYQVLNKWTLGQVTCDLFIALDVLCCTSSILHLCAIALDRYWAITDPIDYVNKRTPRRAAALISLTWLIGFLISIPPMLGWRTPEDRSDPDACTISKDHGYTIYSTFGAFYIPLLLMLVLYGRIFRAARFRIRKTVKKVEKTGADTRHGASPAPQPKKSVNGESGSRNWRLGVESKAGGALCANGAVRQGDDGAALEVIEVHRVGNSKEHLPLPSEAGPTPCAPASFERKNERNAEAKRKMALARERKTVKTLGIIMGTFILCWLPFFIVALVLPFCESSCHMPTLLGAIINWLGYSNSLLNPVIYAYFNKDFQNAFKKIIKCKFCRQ
# Chain of Epidermal Growth Factor (EG F) (P00533 25-1210): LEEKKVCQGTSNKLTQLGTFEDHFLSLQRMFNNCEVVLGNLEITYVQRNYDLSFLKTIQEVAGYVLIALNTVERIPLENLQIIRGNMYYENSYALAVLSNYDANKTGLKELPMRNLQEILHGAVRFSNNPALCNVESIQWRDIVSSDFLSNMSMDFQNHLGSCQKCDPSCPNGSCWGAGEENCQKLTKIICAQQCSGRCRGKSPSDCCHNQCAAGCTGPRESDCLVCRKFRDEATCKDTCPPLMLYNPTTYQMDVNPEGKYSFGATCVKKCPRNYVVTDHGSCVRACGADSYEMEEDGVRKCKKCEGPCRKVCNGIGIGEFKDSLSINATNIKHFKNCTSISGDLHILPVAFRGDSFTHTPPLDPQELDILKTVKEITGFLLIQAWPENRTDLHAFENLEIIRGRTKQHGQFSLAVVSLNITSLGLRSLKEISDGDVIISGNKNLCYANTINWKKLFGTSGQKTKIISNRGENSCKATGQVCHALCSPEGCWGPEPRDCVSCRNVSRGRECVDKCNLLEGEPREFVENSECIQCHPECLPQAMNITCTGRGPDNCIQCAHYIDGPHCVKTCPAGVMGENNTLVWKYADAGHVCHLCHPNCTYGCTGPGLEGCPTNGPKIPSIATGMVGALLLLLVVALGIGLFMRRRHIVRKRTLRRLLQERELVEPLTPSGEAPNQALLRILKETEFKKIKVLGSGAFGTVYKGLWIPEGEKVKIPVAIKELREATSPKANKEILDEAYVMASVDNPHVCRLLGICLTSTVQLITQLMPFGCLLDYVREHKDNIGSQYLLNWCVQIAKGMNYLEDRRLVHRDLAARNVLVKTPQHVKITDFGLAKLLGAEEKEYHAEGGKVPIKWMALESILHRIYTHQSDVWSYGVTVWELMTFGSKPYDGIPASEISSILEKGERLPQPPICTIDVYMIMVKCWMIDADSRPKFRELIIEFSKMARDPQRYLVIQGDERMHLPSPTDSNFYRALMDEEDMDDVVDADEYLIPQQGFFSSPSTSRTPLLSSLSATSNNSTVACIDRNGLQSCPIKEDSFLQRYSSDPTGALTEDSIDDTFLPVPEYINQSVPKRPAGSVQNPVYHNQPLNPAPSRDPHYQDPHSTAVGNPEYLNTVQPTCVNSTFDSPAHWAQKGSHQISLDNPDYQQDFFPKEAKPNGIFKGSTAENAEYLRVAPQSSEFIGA
# Chain of Opiate n (OP3, MOP) (P35372 whole entry): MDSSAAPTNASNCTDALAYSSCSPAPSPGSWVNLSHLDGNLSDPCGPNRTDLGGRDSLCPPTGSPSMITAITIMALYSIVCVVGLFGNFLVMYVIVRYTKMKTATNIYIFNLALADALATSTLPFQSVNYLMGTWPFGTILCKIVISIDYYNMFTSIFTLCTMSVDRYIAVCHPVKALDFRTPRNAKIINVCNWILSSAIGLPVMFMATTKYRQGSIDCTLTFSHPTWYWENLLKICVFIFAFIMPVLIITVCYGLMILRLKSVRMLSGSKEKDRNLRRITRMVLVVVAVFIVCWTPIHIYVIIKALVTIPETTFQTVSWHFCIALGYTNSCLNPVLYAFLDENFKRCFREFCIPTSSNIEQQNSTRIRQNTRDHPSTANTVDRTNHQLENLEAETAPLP
# Chain of Muscarinic M2 (P08172 whole entry): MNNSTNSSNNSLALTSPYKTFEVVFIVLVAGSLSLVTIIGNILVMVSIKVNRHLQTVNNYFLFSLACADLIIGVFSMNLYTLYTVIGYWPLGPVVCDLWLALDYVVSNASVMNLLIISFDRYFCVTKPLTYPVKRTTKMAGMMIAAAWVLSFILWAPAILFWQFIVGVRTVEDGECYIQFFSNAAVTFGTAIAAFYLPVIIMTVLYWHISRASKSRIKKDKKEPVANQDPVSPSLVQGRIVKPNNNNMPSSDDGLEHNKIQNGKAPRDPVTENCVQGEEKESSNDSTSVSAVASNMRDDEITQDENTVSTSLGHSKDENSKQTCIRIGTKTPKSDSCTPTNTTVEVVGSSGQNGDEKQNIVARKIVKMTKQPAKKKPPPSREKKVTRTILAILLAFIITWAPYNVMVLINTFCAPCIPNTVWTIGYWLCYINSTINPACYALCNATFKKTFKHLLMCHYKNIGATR
structure (smiles),measurement,setting,value
CCCCCCCCCCCC(=O)OC[C@@H](COP(=O)(O)OCCNC(=O)c1ccc(Cn2c(=O)[nH]c3c(N)nc(OCCOC)nc32)cc1)OC(=O)CCCCCCCCCCC [TMX-202],Percent inhibition of enzyme activity,"CYP450, 2C9",−4%
same,Percent inhibition of enzyme activity,"CYP450, 3A4",−1%
same,Percent inhibition of specific radioligand binding,Adenosine A1,10%
same,Percent inhibition of specific radioligand binding,Adenosine A2A,−8%
same,Percent inhibition of specific radioligand binding,Adenosine A3,6%
same,Percent inhibition of specific radioligand binding,Adrenergic a1B,0%
same,Percent inhibition of specific radioligand binding,Adrenergic a2A,3%
same,Percent inhibition of specific radioligand binding,Adrenergic β1,18%
same,Percent inhibition of specific radioligand binding,Adrenergic β2,3%
same,Percent inhibition of specific radioligand binding,Bradykinin B2,−2%
same,Percent inhibition of specific radioligand binding,[1],1%
same,Percent inhibition of specific radioligand binding,[2],10%
same,Percent inhibition of specific radioligand binding,Cannabinoid CB1,−14%
same,Percent inhibition of specific radioligand binding,Dopamine D1,15%
same,Percent inhibition of specific radioligand binding,Dopamine D4.2,14%
same,Percent inhibition of specific radioligand binding,Endothelin ETB,−7%
same,Percent inhibition of specific radioligand binding,[3],6%
same,Percent inhibition of specific radioligand binding,Estrogen ERa,7%
same,Percent inhibition of specific radioligand binding,Glucocorticoid,−1%
same,Percent inhibition of specific radioligand binding,"Glutamate, Kainate",1%
same,Percent inhibition of specific radioligand binding,[4],2%
same,Percent inhibition of specific radioligand binding,"Imidazoline I2, Central",−3%
same,Percent inhibition of specific radioligand binding,[5],10%
same,Percent inhibition of specific radioligand binding,Muscarinic M1,0%
same,Percent inhibition of specific radioligand binding,Muscarinic M2,0%
same,Percent inhibition of specific radioligand binding,Neuropeptide Y Y2,4%
same,Percent inhibition of specific radioligand binding,Nicotinic Acetylcholine,9%
same,Percent inhibition of specific radioligand binding,[6],−3%
same,Percent inhibition of specific radioligand binding,"Opiate 51 (OP1, DOP)",5%
same,Percent inhibition of specific radioligand binding,"Opiate n (OP3, MOP)",42%
same,Percent inhibition of specific radioligand binding,Phorbol Ester,−8%
same,Percent inhibition of specific radioligand binding,[7],33%
same,Percent inhibition of specific radioligand binding,Potassium Channel [KATP],8%
same,Percent inhibition of specific radioligand binding,Potassium Channel hERG,−4%
same,Percent inhibition of specific radioligand binding,"Purinergic P2,",8%
same,Percent inhibition of specific radioligand binding,[8],−7%
same,Percent inhibition of specific radioligand binding,[9],3%
same,Percent inhibition of specific radioligand binding,Sigma al,−5%
same,Percent inhibition of specific radioligand binding,[10],18%
same,MTD (molar),"[11]; C57BL/6 mice, intravenous administration",approximately 163 μmoles/kg
same,Body weight change after a single intravenous injection of the MTD,[11]; Tlr7−/− or Myd88−/− mice,no significant body weight loss
same,Body weight change after a single intravenous injection of the MTD,[11]; WT mice,significant reduction in body weight
same,Serum level of the compound one hour after the application,[12],2.6 ± 0.6 pg/mL
